Source: article PMC8692984 (Frontiers in Pharmacology, 2021)

Legend:
α7 nAChRs [1] = molecular target: T1, α7 nAChRs (Homo sapiens, UniProt P36544); assay: cell-based; conditions: Choline EC50 ± SEM at PNU120596-α7 nAChRs
α7 nAChRs [2] = molecular target: T1, α7 nAChRs; assay: cell-based; conditions: Choline EC50 ± SEM at TQS-α7 nAChRs

T1 sequence (P36544 23-502): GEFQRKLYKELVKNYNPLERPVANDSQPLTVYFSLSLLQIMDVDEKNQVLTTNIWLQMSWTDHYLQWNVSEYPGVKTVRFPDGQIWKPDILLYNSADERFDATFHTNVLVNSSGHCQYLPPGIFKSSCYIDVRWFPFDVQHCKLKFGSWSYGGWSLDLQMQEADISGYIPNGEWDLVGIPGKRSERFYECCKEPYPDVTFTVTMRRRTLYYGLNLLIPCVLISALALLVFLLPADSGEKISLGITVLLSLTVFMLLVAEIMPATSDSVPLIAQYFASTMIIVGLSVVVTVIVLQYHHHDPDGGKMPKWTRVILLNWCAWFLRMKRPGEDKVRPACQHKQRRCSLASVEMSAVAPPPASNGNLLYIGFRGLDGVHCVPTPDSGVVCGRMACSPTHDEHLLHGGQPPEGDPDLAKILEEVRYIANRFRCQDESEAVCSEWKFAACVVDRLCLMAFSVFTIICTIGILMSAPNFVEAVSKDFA

`C[N+](C)(C)CCO` [Choline, reference compound] was tested, and the EC50 (α7 nAChRs [1]) was 3 ± 0.26 µM and the EC50 (α7 nAChRs [2]) was 9 ± 0.9 µM.
